Experimental data taken from article PMC5030160 (Nature chemical biology, 2016).

Target: Pdr5 (Saccharomyces cerevisiae, UniProt P33302)
Test: fluorescence transport assay in isolated plasma membranes
Type: biochemical
Details: 150 nM R6G, 10 mM ATP, 5 mM MgCl2, Hepes pH 7.0, 30 °C

Chain of Pdr5 (P33302 whole entry): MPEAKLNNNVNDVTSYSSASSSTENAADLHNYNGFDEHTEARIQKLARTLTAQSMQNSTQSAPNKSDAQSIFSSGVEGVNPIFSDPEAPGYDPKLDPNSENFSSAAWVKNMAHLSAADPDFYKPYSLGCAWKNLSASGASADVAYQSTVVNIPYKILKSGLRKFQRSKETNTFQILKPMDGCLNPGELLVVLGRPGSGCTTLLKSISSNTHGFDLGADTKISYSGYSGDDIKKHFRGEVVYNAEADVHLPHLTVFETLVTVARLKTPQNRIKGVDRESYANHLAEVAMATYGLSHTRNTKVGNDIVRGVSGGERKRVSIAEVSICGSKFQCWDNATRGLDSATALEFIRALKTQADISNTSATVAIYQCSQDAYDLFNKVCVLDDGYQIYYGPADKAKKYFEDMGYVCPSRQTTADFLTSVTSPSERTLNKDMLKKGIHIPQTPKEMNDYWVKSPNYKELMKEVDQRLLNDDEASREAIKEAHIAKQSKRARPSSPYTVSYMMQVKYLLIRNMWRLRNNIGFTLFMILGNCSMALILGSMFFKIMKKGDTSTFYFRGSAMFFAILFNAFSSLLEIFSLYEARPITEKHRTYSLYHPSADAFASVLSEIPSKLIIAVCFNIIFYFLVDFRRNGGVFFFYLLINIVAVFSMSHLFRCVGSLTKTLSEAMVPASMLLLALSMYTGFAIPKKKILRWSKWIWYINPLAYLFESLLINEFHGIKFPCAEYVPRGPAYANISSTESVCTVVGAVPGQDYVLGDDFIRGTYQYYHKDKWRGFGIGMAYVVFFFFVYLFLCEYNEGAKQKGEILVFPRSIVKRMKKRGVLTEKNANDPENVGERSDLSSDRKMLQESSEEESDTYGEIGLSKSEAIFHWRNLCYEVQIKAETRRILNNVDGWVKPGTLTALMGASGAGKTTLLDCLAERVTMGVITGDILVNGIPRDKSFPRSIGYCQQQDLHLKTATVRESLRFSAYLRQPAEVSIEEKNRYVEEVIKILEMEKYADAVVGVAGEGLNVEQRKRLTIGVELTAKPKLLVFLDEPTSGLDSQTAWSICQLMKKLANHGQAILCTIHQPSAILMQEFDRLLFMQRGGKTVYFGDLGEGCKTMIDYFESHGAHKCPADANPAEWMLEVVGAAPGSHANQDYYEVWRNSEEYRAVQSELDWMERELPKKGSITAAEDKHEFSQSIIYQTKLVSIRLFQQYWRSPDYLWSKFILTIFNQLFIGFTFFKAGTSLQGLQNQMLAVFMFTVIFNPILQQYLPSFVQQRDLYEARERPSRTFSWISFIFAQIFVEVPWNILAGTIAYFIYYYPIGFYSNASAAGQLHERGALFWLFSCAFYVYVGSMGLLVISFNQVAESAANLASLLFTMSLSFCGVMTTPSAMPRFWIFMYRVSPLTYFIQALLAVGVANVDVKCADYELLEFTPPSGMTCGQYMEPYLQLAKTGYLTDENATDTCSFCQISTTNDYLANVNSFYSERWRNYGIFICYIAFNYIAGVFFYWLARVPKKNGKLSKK

CCN=c1cc2oc3cc(NCC)c(C)cc3c(-c3ccccc3C(=O)OCC)c-2cc1C [rhodamine-6G]
fluorescence transport assay in isolated plasma membranes: Active transport of rhodamine-6G (R6G) was determined according to a standard protocol
